Results: patent US8697385B1, “Protein controlling synthesis of collagen and associated methods” (Florida State University Research Foundation, Inc., priority 2009, dated 2014)

Columns and labels:
[1] = system: human lung fibroblasts; assay: Western blot analysis of cellular and medium collagen polypeptides, lung fibroblasts; format: cell-based; conditions: 16 h, ML-7 40 μM, blebbistatin 100 μM, vs control cells; for secretion of collagen α1(I) polypeptide into the medium / secretion of collagen α2(I) polypeptide into the medium / secretion/expression of fibronectin: cytochalasin B 20 μM
Method: (§1) ML-7, blebbistatin, cytochalasin B, puromycin, and cycloheximide were purchased from Sigma. ML-7 was used at 40 μM, blebbistatin was used at 100 μM, and cytochalasin B was used at 20 μM. Cells were incubated with the drugs for 16 h before analysis. Puromycin (200 μg/ml) and cycloheximide (100 μg/ml) were added to the cells for 2 h. Human lung fibroblasts have been described previously.16 Scleroderma fibroblasts were purchased from the European Collection of Cell Cultures (cell line BM0070) and derived from the skin of a scleroderma patient. MEFs were derived from knock-in mice in which the 5′SL of the collagen α1(I) gene has been mutated (Parsons et al., submitted). Several independent cell isolates were used throughout the study. All cells were cultured in Dulbecco's modified Eagle's medium supplemented with 10% fetal bovine serum for up to 10 passages. Plasmid constructs and adenovirus preparation. The HA-tagged LARP6 clone and the deletion mutants have been described previously.^16 Adenoviruses were constructed by recloning of the constructs into the pAdCMVTRACK vector, followed by recombination with the pAdEasy vector and amplification, as described previously.^48 Expression of each construct was verified by Western blot analysis. The viruses made express both the full-size test protein and the green fluorescent protein (GFP), which is encoded by an independent transcription unit.^48 Expression of GFP served as control for viral transduction. RT-PCR analysis Total cellular RNA was isolated using an RNA isolation kit (Sigma). RT-PCRs were performed with 100 ng of total RNA or using rTth reverse transcriptase (Boca Scientific, Boca Raton, Fla.). [^32P]dCTP was included in the PCR step to label the products, which were resolved on sequencing gels, as described previously.^8,31,49,50 When RNA from polysomal fractions was analyzed, an equal aliquot of each fraction was used. The number of cycles was adjusted to within the linear range of the reaction. The primers used for RT-PCR were as follows: h-collagen α1(I), 5′ primer […] (SEQ ID NO:3) and 3′ primer […] (SEQ ID NO:4); h-collagen α2(I), 5′ primer […] (SEQ ID NO:5) and 3′ primer […] (SEQ ID NO:6).
(§2) Protein concentration was estimated by the Bradford assay, with bovine serum albumin as standard.^51 Western blot analyses of cellular proteins were performed using 50 μg of protein. For Western blot analysis of secreted proteins, equal numbers of cells were seeded, serum-free medium was added to the cells, and incubation continued for 3 h. The medium was collected, and an aliquot was analyzed directly by Western blot analysis. Use of serum free medium in collecting secreted proteins is essential because fetal calf serum contains substantial amounts of collagen and fibronectin.^15,31 For immunostaining, cells were seeded onto glass coverslips. After treatment, the cells were fixed with 4% paraformaldehyde for 30 min at room temperature and permeabilized with 0.5% Triton X-100 in phosphatebuffered saline (PBS) for 10 min. After the cells had been blocked with 10% goat serum/5% bovine serum albumin in PBS for 1 h at room temperature, they were incubated with primary antibody overnight at 4° C., washed, and visualized with AlexaFluor594-conjugated or Cy-2-conjugated secondary antibodies. The cells were mounted using VECTASHIELD mounting medium containing […], 6-diamidino-2-phenylindole (Vector Laboratories), and images were taken by a Leica TCS SP2 AOBS laser confocal microscope equipped with a Chameleon Ti: Sapphire multiphoton laser. Optical sections were processed with LCSLite software.
(§3) To assess the role of nonmuscle myosin in collagen synthesis, we disrupted nonmuscle myosin filaments in two different cell types: primary human lung fibroblasts and primary scleroderma skin fibroblasts. These cells are responsible for lung and skin fibrosis. […]

[2] = system: primary scleroderma skin fibroblasts; assay: Western blot analysis of cellular and medium collagen polypeptides, scleroderma fibroblasts; format: cell-based, human; conditions: 16 h, ML-7 40 μM, blebbistatin 100 μM; for secretion of collagen α1(I) polypeptide into the medium / secretion of collagen α2(I) polypeptide into the medium / secretion/expression of fibronectin: cytochalasin B 20 μM
Method: as §1, §2, §3

[3] = system: nonmuscle myosin IIB; assay: Immunoprecipitation of nonmuscle myosin IIB and RT-PCR of collagen mRNAs; format: cell-based, human; conditions: lung fibroblasts; cycloheximide 100 μg/ml or puromycin 200 μg/ml, 2 h
Method: ML-7, blebbistatin, cytochalasin B, puromycin, and cycloheximide were purchased from Sigma. ML-7 was used at 40 μM, blebbistatin was used at 100 μM, and cytochalasin B was used at 20 μM. Cells were incubated with the drugs for 16 h before analysis. Puromycin (200 μg/ml) and cycloheximide (100 μg/ml) were added to the cells for 2 h. Human lung fibroblasts have been described previously.16 Scleroderma fibroblasts were purchased from the European Collection of Cell Cultures (cell line BM0070) and derived from the skin of a scleroderma patient. MEFs were derived from knock-in mice in which the 5′SL of the collagen α1(I) gene has been mutated (Parsons et al., submitted). […] [^32P]dCTP was included in the PCR step to label the products, which were resolved on sequencing gels, as described previously.^8,31,49,50 When RNA from polysomal fractions was analyzed, an equal aliquot of each fraction was used. […]
One of the roles of nonmuscle myosin filaments may be to present collagen mRNAs to ribosomes. Therefore, we assessed if the association of collagen mRNAs with nonmuscle myosin is dependent on intact polysomes. […] We then immunoprecipitated nonmuscle myosin from lung fibroblasts treated with cycloheximide or puromycin and analyzed if this can change the pull-down of collagen mRNAs. As control, the association with vimentin was analyzed in the same samples (FIG. 9b). […]

[4] = target: T1, fibronectin (human, UniProt P02751 32-2477, limits assumed); assay: co-immunoprecipitation with anti-HA antibody from human lung fibroblasts, Western blot with anti-fibronectin
T1 construct: Specificity control in the co-immunoprecipitations, detected with anti-fibronectin antibody

[5] = target: T2, nonmuscle myosin IIB (human, UniProt P35580 1-1976, limits assumed); assay: co-immunoprecipitation with anti-HA antibody from human lung fibroblasts, Western blot with anti-myosin IIB
T2 construct: Endogenous protein in lysate of human lung fibroblasts, detected by Western blot with anti-myosin IIB (anti-MYH10) antibody; also called MYO IIB; MYH10
T2 sequence (P35580 whole entry): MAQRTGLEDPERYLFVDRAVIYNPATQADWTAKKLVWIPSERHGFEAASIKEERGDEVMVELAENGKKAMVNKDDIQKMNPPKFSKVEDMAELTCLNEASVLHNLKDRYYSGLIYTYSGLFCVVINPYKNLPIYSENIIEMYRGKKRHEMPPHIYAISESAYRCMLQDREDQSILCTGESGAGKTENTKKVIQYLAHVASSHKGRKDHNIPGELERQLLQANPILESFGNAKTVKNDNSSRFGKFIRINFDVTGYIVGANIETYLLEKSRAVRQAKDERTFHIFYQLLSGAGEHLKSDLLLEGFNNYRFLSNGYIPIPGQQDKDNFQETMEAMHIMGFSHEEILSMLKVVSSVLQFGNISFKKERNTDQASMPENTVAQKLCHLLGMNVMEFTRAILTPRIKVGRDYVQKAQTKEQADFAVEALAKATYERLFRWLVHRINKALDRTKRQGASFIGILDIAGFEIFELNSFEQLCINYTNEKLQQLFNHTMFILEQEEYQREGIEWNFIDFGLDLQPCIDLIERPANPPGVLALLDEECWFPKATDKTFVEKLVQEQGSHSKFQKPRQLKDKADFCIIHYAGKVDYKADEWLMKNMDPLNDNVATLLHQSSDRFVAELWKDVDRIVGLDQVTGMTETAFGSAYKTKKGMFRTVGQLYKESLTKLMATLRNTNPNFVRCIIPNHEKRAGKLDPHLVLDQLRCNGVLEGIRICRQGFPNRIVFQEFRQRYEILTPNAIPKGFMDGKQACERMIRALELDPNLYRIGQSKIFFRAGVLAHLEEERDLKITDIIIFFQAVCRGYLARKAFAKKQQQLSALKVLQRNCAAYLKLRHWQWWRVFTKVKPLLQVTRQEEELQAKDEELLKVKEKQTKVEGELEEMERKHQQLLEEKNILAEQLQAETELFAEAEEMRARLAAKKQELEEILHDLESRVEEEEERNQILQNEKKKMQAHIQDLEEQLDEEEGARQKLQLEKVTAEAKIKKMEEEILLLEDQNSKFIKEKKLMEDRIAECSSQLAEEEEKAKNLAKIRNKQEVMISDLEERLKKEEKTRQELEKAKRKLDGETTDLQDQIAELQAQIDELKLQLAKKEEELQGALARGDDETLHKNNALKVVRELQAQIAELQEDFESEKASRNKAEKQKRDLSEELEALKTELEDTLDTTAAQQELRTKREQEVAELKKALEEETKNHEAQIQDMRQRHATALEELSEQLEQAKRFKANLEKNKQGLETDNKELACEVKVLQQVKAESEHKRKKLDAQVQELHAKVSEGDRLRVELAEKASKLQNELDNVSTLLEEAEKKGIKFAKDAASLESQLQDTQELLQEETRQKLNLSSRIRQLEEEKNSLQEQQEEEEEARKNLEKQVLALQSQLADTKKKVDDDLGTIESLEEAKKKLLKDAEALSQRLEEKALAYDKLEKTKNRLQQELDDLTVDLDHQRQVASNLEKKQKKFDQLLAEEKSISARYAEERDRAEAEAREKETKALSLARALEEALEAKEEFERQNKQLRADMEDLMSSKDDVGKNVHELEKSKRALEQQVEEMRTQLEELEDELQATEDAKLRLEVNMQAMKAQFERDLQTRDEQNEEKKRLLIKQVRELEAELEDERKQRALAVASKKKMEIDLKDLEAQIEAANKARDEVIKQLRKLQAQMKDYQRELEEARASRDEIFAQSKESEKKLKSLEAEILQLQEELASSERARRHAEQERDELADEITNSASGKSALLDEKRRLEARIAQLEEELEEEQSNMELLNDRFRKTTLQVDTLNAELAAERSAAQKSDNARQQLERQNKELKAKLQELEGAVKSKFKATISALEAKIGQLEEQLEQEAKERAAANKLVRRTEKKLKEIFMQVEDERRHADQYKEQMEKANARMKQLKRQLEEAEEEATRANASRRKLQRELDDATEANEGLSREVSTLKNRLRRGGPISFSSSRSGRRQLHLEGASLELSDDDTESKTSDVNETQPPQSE
Method: (§4) HA, Western blot analysis using anti-HA antibody as control for immunoprecipitation efficiency of the tagged proteins. (c) Experiment as in (b), but Western blot analysis was performed using anti-myosin IIA antibody (MYO IIA). […] Experiment as in (b), but the lysate was treated with Rnase. A prior to immunoprecipitation (lane 1) or was not treated (lanes 2 and 3). The immunoprecipitate was analyzed with anti-myosin IIB antibody (MYO IIB), anti-fibronectin antibody (FIB; as control for specificity), and anti-HA antibody (HA; as control for precipitation efficiency).

[6] = target: T3, nonmuscle myosin IIA (human, UniProt P35579 2-1960); assay: co-immunoprecipitation with anti-HA antibody from human lung fibroblasts, Western blot with anti-myosin IIA
T3 construct: Endogenous protein in lysate of human lung fibroblasts, detected with anti-myosin IIA antibody; also called MYO IIA
T3 sequence (P35579 2-1960 limits assumed): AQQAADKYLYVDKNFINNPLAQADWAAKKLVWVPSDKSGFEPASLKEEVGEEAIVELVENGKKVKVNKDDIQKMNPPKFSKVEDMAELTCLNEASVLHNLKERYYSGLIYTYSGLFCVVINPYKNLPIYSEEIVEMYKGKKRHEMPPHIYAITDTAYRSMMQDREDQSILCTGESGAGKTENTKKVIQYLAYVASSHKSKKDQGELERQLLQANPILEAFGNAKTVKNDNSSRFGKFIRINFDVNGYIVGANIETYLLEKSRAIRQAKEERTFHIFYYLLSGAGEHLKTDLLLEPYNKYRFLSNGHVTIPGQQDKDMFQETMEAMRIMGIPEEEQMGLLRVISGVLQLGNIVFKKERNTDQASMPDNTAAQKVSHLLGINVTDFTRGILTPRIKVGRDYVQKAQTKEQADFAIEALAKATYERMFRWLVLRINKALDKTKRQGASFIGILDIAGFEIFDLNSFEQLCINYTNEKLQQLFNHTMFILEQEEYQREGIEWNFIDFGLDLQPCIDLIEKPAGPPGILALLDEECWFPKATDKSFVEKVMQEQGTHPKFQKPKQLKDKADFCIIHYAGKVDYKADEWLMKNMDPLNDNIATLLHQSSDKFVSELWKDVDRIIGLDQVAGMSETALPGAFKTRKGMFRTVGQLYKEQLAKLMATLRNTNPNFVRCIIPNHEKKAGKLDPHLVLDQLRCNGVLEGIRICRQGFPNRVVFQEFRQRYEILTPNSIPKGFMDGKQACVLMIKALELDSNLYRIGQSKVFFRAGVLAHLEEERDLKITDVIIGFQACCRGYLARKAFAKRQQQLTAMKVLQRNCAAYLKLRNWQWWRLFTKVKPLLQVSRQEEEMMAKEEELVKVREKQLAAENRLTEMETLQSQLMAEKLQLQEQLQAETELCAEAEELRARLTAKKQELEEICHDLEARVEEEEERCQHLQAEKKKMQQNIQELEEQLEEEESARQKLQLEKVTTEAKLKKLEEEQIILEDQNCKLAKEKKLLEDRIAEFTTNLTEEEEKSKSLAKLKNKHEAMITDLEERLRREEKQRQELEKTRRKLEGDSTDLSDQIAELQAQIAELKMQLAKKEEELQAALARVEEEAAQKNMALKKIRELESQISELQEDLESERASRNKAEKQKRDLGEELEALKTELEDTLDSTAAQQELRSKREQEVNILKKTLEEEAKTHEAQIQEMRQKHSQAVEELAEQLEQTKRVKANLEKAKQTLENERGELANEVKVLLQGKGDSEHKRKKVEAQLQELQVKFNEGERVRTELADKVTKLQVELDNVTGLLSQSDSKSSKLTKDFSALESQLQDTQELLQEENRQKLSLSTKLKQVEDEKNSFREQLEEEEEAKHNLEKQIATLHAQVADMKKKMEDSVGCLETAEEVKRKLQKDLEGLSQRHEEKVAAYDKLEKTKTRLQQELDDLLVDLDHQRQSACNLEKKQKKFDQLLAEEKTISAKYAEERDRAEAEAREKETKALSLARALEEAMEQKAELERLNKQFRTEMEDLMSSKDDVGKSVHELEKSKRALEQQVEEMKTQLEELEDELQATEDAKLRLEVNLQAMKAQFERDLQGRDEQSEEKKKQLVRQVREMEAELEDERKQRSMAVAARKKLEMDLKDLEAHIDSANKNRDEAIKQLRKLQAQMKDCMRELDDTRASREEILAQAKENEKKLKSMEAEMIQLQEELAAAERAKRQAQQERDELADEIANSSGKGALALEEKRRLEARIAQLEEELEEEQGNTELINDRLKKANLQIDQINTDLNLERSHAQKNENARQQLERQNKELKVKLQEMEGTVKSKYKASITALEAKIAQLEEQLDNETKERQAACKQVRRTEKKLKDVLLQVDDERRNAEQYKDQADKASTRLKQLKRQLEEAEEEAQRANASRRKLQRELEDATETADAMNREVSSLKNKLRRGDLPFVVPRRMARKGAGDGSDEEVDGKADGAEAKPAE
Method: as §4

C=C1[C@@H](C)[C@H]2[C@H](Cc3ccccc3)NC(=O)[C@]23OC(=O)/C=C/[C@H](O)CCC[C@@H](C)C/C=C/[C@H]3[C@@H]1O [cytochalasin B]
secretion of collagen α1(I) polypeptide into the medium [1]: diminished
secretion of collagen α2(I) polypeptide into the medium [1]: diminished
secretion/expression of fibronectin [1]: had an effect
secretion of collagen α1(I) polypeptide into the medium [2]: no effect
secretion of collagen α2(I) polypeptide into the medium [2]: small effect
secretion/expression of fibronectin [2]: small effect

C[C@@H]1C[C@@H]([C@H](O)CC2CC(=O)NC(=O)C2)C(=O)[C@@H](C)C1 [cycloheximide]
collagen α1(I) and α2(I) mRNAs pulled down with nonmuscle myosin IIB [3]: both collagen mRNAs were pulled down

Cc1ccc2c(c1)C(=O)C1(O)CCN(c3ccccc3)C1=N2 (centres unmarked) [blebbistatin]
secretion of collagen α1(I) polypeptide into the medium [1]: minimally affecting
secretion of collagen α2(I) polypeptide into the medium [1]: reduced
secretion/expression of fibronectin [1]: small effect
intracellular level of collagen α1(I) and α2(I) polypeptides [1]: unchanged
intracellular level of collagen α1(I) polypeptide [2]: unchanged
intracellular level of collagen α2(I) polypeptide [2]: unchanged
secretion of collagen α1(I) polypeptide into the medium [2]: minimally affecting
secretion of collagen α2(I) polypeptide into the medium [2]: abolished
secretion/expression of fibronectin [2]: small effect

B1: HA-tagged full-size LARP6 (other)
chain: MAQSGGEARPGPKTAVQIRVAIQEAEDVDELEDEEEGAETRGAGDPARYLSPGWGSASEEEPSRGHSGTTASGGENEREDLEQEWKPPDEELIKKLVDQIEFYFSDENLEKDAFLLKHVRRNKLGYVSVKLLTSFKKVKHLTRDWRTTAHALKYSVVLELNEDHRKVRRTTPVPLFPNENLPSKMLLVYDLYLSPKLWALATPQKNGRVQEKVMEHLLKLFGTFGVISSVRILKPGRELPPDIRRISSRYSQVGTQECAIVEFEEVEAAIKAHEFMITESQGKENMKAVLIGMKPPKKKPAKDKNHDEEPTASIHLNKSLNKRVEELQYMGDESSANSSSDPESNPTSPMAGRRHAATNKLSPSGHQNLFLSPNASPCTSPWSSPLAQRKGVSRKSPLAEEGRLNCSTSPEIFRKCMDYSSDSSVTPSGSPWVRRRRQAEMGTQEKSPGTSPLLSRKMQTADGLPVGVLRLPRGPDNTRGFHGHERSRACV
notes: Expressed from adenovirus in human lung fibroblasts and immunoprecipitated from cell lysate with anti-HA antibody; also called HA-tagged LARP6; not shown: HA tag
binding result [4]: no binding

B2: HA-tagged RBMS3 (other, UniProt Q6XE24 1-437, looked up)
chain: MGKRLDQPQMYPQYTYYYPHYLQTKQSYAPAPHPMAPPSPSTNSSSNNSSNNSSGEQLSKTNLYIRGLPPGTTDQDLIKLCQPYGKIVSTKAILDKNTNQCKGYGFVDFDSPAAAQKAVASLKANGVQAQMAKQQEQDPTNLYISNLPISMDEQELENMLKPFGHVISTRILRDANGVSRGVGFARMESTEKCEVVIQHFNGKYLKTPPGIPAPSEPLLCKFADGGQKKRQNQSKYTQNGRPWPREGEAGMALTYDPTAAIQNGFYSSPYSIATNRMIPQTSITPFIAASPVSTYQVQSTSWMPHPPYVMQPTGAVITPTMDHPMSMQPANMMGPLTQQMNHLSLGTTGTIQSQDRIMILHQLLCQYMTAAAPMQGTYIPQYTPVPPTAVSIEGVVADTSPQTVAPSSQDTSGQQQQIAVDTSNEHAPAYSYQQSKP
notes: Control protein expressed in human lung fibroblasts; not shown: HA tag
binding result [5]: no binding

B3: HA-tagged LARP6 lacking the C-terminal domain (ΔC-LARP6) (other)
chain: MAQSGGEARPGPKTAVQIRVAIQEAEDVDELEDEEEGAETRGAGDPARYLSPGWGSASEEEPSRGHSGTTASGGENEREDLEQEWKPPDEELIKKLVDQIEFYFSDENLEKDAFLLKHVRRNKLGYVSVKLLTSFKKVKHLTRDWRTTAHALKYSVVLELNEDHRKVRRTTPVPLFPNENLPSKMLLVYDLYLSPKLWALATPQKNGRVQEKVMEHLLKLFGTFGVISSVRILKPGRELPPDIRRISSRYSQVGTQECAIVEFEEVEAAIKAHEFMITESQGKENMKAVLIGMKPPKKKP
notes: Expressed in human lung fibroblasts; also called HA-tagged ΔC-LARP6; C-terminal deletion mutant of LARP6; not shown: HA tag
binding result [6]: no binding
binding result [5]: no binding
